According to US7803801B2, “Aminopyridine compounds having Syk inhibitory activity” (Japan Tobacco, Inc., priority 2005, dated 2010):
Read-outs that look alike come from different tables or passages of the source.

Assays:
[1] = test system: cultured human mast cells; test: Degranulation inhibition test using cultured human mast cells (IgE cross-linking, β-Hexosaminidase release); type: cell-based; conditions: Mast cell, cultured human mast cells, read-out: human degranulation ave. IC50
Procedure, shortened: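 Degranulation was triggered by anti-hIgE (10 μg/mL final, 30 min, 37 °C) after a 10-min compound pretreatment (DMSO 0.1%) of cord-blood CD34+-derived mast cells primed 5 days with IL-4 and IgE. β-Hexosaminidase in supernatant was measured with p-nitrophenyl-GlcNAc substrate (A405), expressed against water-lysed total; IC50 (M).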

[2] = molecular target: GST-Syk Full Protein (human) (Homo sapiens, UniProt P43405); test: Syk kinase inhibition test (HTRF method); type: biochemical
Procedure, shortened: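 HTRF read-out: after EDTA termination and 1 h with XL665-streptavidin and Eu-anti-phosphotyrosine, the 665/620 nm ratio was measured. The reaction ran 30 min at 20–25 °C with final 6.4 nM human GST-Syk, 250 nM biotinylated peptide, 100 μM ATP, pH 7.0 HEPES buffer, 2% DMSO.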

[3] = Tables 1-x, compounds A, read-out: sykHTRF ave IC50
[4] = Tables 2-x, thiophene compounds B
[5] = Tables 2-x, thiophene compounds B, read-out: sykHTRK ave IC50
[6] = anti-hIgE stimulation, β-Hexosaminidase index, average
[7] = HTRF, 100 μM ATP, 30 min room temperature, average, read-out: sykHTRF ave IC50

IC50 [1, 6]	IC50 [2, 7]	SMILES	further results
–	–	CC(=O)N1CCC(Nc2ncc(-c3cccc(Nc4cc(C)ccn4)n3)s2)CC1 [Compound A-514, 1-(4-{5-[6-(4-methylpyridin-2-ylamino)pyridin-2-yl]thiazol-2-ylamino}piperidin-1-yl)ethanone]	IC50 ([1]; Tables 1-x, compounds A): 100 to 1000 nM; IC50 [2, 3]: < 100 nM
–	–	CC(=NO)c1cc(C)c(-c2cccc(Nc3cc(C)ccn3)n2)s1 [Compound B-7]	IC50 [1, 4]: > 1000 nM; IC50 [2, 5]: 100 to 1000 nM
100 to 1000 nM	100 to 1000 nM	COC(=O)NCCc1ncc(-c2cccc(Nc3cc(C)ccn3)n2)s1 [Compound A-308]	–
–	–	Cc1ccnc(Nc2cccc(-c3ccc(C(=O)CCO)s3)n2)c1 [Compound B-57]	IC50 [1, 4]: 100 to 1000 nM; IC50 [2, 5]: 100 to 1000 nM
100 to 1000 nM	100 to 1000 nM	CC(=O)Nc1ccc(CCc2ncc(-c3cccc(Nc4cc(C)ccn4)n3)s2)cc1 [Compound A-220]	–
100 to 1000 nM	100 to 1000 nM	Cc1ccnc(Nc2cccc(-c3cnc([C@@H]4CCCC(=O)N4)s3)n2)c1 [Compound A-363]	–
100 to 1000 nM	100 to 1000 nM	COC(=O)CN1CCC(c2ncc(-c3cccc(Nc4cc(C)ccn4)n3)s2)CC1 [Compound A-184]	–
100 to 1000 nM	< 100 nM	Cc1ccnc(Nc2cccc(-c3cnc([C@@H]4CCC(=O)O4)s3)n2)c1 [Compound A-33, (S)-5-{5-[6-(4-methylpyridin-2-ylamino)pyridin-2-yl]thiazol-2-yl}dihydrofuran-2-one]	–
–	–	CNC(=O)N1CCC(N(C)c2ncc(-c3cccc(Nc4cc(C)ccn4)n3)s2)CC1 [Compound A-460, N-methyl-4-(N′-methyl-N′-{5-[6-(4-methylpyridin-2-ylamino)pyridin-2-yl]thiazol-2-yl}amino)piperidine-1-carboxamide]	IC50 ([1]; Tables 1-x, compounds A): 100 to 1000 nM; IC50 [2, 3]: < 100 nM
–	–	Cc1ccnc(Nc2cccc(-c3cnc(N4CCC[C@@H](C(=O)O)C4)s3)n2)c1 [Compound A-531, (R)-1-{5-[6-(4-methylpyridin-2-ylamino)pyridin-2-yl]thiazol-2-yl}piperidine-3-carboxylic acid]	IC50 ([1]; Tables 1-x, compounds A): 100 to 1000 nM; IC50 [2, 3]: < 100 nM
100 to 1000 nM	100 to 1000 nM	Cc1ccnc(Nc2cccc(-c3cnc([C@H](C)NS(C)(=O)=O)s3)n2)c1 [Compound A-58]	–
> 1000 nM	100 to 1000 nM	COc1cc(Nc2cccc(-c3sc(NC(C)=O)nc3C)n2)ncn1 [Compound A-22]	–
100 to 1000 nM	< 100 nM	Cc1ccnc(Nc2cccc(-c3cnc([C@H](C)NC(=O)CO)s3)n2)c1 [Compound A-147, 2-hydroxy-N—((S)-1-{5-[6-(4-methylpyridin-2-ylamino)pyridin-2-yl]thiazol-2-yl}ethyl)acetamide]	–
–	–	Cc1ccnc(Nc2cccc(-c3cc(C)c(C(C)O)s3)n2)c1 (centres unmarked) [Compound B-70]	IC50 [1, 4]: 100 to 1000 nM; IC50 [2, 5]: 100 to 1000 nM
100 to 1000 nM	100 to 1000 nM	Cc1ccnc(Nc2cccc(-c3cnc([C@H](C)NC(C)C)s3)n2)c1 [Compound A-65]	–
–	–	Cc1ccnc(Nc2cccc(-c3cnc(N4CCC(C)(C(=O)NCCO)CC4)s3)n2)c1 [Compound A-503, N-(2-hydroxyethyl)-4-methyl-1-{5-[6-(4-methylpyridin-2-ylamino)pyridin-2-yl]thiazol-2-yl}-piperidine-4-carboxamide]	IC50 ([1]; Tables 1-x, compounds A): 100 to 1000 nM; IC50 [2, 3]: < 100 nM
100 to 1000 nM	100 to 1000 nM	CC(=O)N[C@@H](Cc1ccc(O)cc1)c1ncc(-c2cccc(Nc3cc(C)ccn3)n2)s1 [Compound A-99]	–
–	–	CCC(O)c1ccc(-c2cccc(Nc3cc(C)ccn3)n2)s1 (centres unmarked) [Compound B-47]	IC50 [1, 4]: 100 to 1000 nM; IC50 [2, 5]: 100 to 1000 nM
–	–	Cc1ccnc(Nc2cccc(-c3ccc(CNCCC(=O)O)s3)n2)c1 [Compound B-103]	IC50 [1, 4]: > 1000 nM; IC50 [2, 5]: 100 to 1000 nM
100 to 1000 nM	< 100 nM	Cc1ccnc(Nc2cccc(-c3cnc(CCc4ccc(C(=O)O)cc4)s3)n2)c1 [Compound A-151, 4-(2-{5-[6-(4-methylpyridin-2-ylamino)pyridin-2-yl]thiazol-2-yl}ethyl)benzoic acid]	–
100 to 1000 nM	100 to 1000 nM	O=C1CC[C@@H](c2ncc(-c3cccc(Nc4cc(OCCO)ccn4)n3)s2)N1 [Compound A-343]	–
100 to 1000 nM	< 100 nM	CC(=O)N[C@@H](C)c1ncc(-c2cccc(Nc3cc4ccccc4cn3)n2)s1 [Compound A-91, N—((S)-1-{5-[6-(isoquinolin-3-ylamino)pyridin-2-yl]thiazol-2-yl}ethyl)acetamide]	–
–	–	CONC(=O)c1ccc(-c2cccc(Nc3cc(C)ccn3)n2)s1 [Compound B-64]	IC50 [1, 4]: 100 to 1000 nM; IC50 [2, 5]: 100 to 1000 nM

IC50 [1, 6]	IC50 [2, 7]	SMILES	further results
–	–	CCC(=NO)c1ccc(-c2cccc(Nc3cc(C)ccn3)n2)s1 [Compound B-51, 1-{5-[6-(4-methylpyridin-2-ylamino)pyridin-2-yl]thiophen-2-yl}propan-1-one oxime]	IC50 [1, 4]: > 1000 nM; IC50 [2, 5]: < 100 nM
100 to 1000 nM	< 100 nM	Cc1ccnc(Nc2cccc(-c3cnc(C4CCN(C(N)=O)CC4)s3)n2)c1 [Compound A-182, 4-{5-[6-(4-methylpyridin-2-ylamino)pyridin-2-yl]thiazol-2-yl}piperidine-1-carboxamide]	–
–	–	COC(=O)c1cc(Br)nc(Nc2cccc(-c3ccc(C(C)=O)s3)n2)c1 [Compound B-44]	IC50 [1, 4]: > 1000 nM; IC50 [2, 5]: > 1000 nM
> 1000 nM	100 to 1000 nM	Cc1ccnc(Nc2cccc(-c3cnc(C(=O)NC4CCCCC4O)s3)n2)c1 (centres unmarked) [Compound A-67]	–
–	–	COc1ccnc(Nc2cccc(-c3cnc(N4CC[C@@H](O)C4)s3)n2)c1 [Compound A-538, (R)-1-{5-[6-(4-methoxypyridin-2-ylamino)pyridin-2-yl]thiazol-2-yl}pyrrolidin-3-ol]	IC50 ([1]; Tables 1-x, compounds A): 100 to 1000 nM; IC50 [2, 3]: < 100 nM
–	–	Cc1ccnc(Nc2cccc(-c3ccc(C(=O)N4CCC(O)CC4)s3)n2)c1 [Compound B-79]	IC50 [1, 4]: 100 to 1000 nM; IC50 [2, 5]: 100 to 1000 nM
100 to 1000 nM	100 to 1000 nM	CNC(=O)N1CCC(c2ncc(-c3cccc(Nc4cc(C)ccn4)n3)s2)CC1 [Compound A-359]	–
–	–	CNC(=O)C1CCCN(c2ncc(-c3cccc(Nc4cc(C)ccn4)n3)s2)C1 (centres unmarked) [Compound A-477, N-methyl-1-{5-[6-(4-methylpyridin-2-ylamino)pyridin-2-yl]thiazol-2-yl}piperidine-3-carboxamide]	IC50 ([1]; Tables 1-x, compounds A): 100 to 1000 nM; IC50 [2, 3]: < 100 nM
> 1000 nM	100 to 1000 nM	Cc1ccnc(Nc2cccc(-c3cnc([C@@H]4CCCN4)s3)n2)c1 [Compound A-42]	–
100 to 1000 nM	100 to 1000 nM	Cc1ccnc(Nc2cccc(-c3cnc(CCc4ccc(N)cc4)s3)n2)c1 [Compound A-218]	–
> 1000 nM	< 100 nM	CNC(=O)C1CCN(c2ncc(-c3cccc(Nc4cc(C)ccn4)n3)s2)CC1 [Compound A-4, N-methyl-1-{5-[6-(4-methylpyridin-2-ylamino)pyridin-2-yl]thiazol-2-yl}piperidine-4-carboxamide]	–
100 to 1000 nM	100 to 1000 nM	COC(=O)COCc1ncc(-c2cccc(Nc3cc(C)ccn3)n2)s1 [Compound A-361]	–
100 to 1000 nM	< 100 nM	Cc1ccnc(Nc2cccc(-c3cnc([C@@H](O)C(C)C)s3)n2)c1 [Compound A-82, (S)-2-methyl-1-{5-[6-(4-methylpyridin-2-ylamino)pyridin-2-yl]thiazol-2-yl}propan-1-ol]	–
–	–	Cc1ccnc(Nc2cccc(-c3cnc(CN4CCC(O)C4)s3)n2)c1 (centres unmarked) [Compound A-380]	IC50 ([1]; Tables 1-x, compounds A): 100 to 1000 nM; IC50 [2, 3]: 100 to 1000 nM
–	–	Cc1ccnc(Nc2cccc(-c3cnc(N(C)C4CCN(C(=O)CCC(=O)O)CC4)s3)n2)c1 [Compound A-553, 4-[4-(N-methyl-N-{5-[6-(4-methylpyridin-2-ylamino)pyridin-2-yl]thiazol-2-yl}amino)piperidin-1-yl]-4-oxobutyric acid]	IC50 ([1]; Tables 1-x, compounds A): > 1000 nM; IC50 [2, 3]: < 100 nM
100 to 1000 nM	< 100 nM	Cc1ccnc(Nc2cccc(-c3cnc(C4CCNCC4)s3)n2)c1 [Compound A-92, (4-methylpyridin-2-yl)-[6-(2-piperidin-4-ylthiazol-5-yl)pyridin-2-yl]amine]	–
–	–	Cc1ccnc(Nc2cccc(-c3sc(N4CCN(C=O)CC4)nc3C)n2)c1 [Compound A-437, 4-{4-methyl-5-[6-(4-methylpyridin-2-ylamino)pyridin-2-yl]thiazol-2-yl}piperazine-1-carbaldehyde]	IC50 ([1]; Tables 1-x, compounds A): 100 to 1000 nM; IC50 [2, 3]: < 100 nM
–	–	COC(=O)N1CCN(c2ncc(-c3cccc(Nc4cc(C)ccn4)n3)s2)CC1 [Compound A-438, methyl 4-{5-[6-(4-methylpyridin-2-ylamino)pyridin-2-yl]thiazol-2-yl}piperazine-1-carboxylic acid methyl ester]	IC50 ([1]; Tables 1-x, compounds A): 100 to 1000 nM; IC50 [2, 3]: < 100 nM
100 to 1000 nM	100 to 1000 nM	Cc1ccnc(Nc2cccc(-c3cnc([C@@H]4CCCC(=O)N4C)s3)n2)c1 [Compound A-364]	–
> 1000 nM	100 to 1000 nM	CCOC(=O)CC(C)(C)NC(=O)c1ncc(-c2cccc(Nc3cc(C)ccn3)n2)s1 [Compound A-155]	–
–	–	CC(=O)c1ccc(-c2cccc(Nc3cc(N(C)C)ncn3)n2)s1 [Compound B-26]	IC50 [1, 4]: > 1000 nM; IC50 [2, 5]: 100 to 1000 nM
100 to 1000 nM	100 to 1000 nM	Cc1ccnc(Nc2cccc(-c3cnc(C4CCC(=O)CC4)s3)n2)c1 [Compound A-60]	–
100 to 1000 nM	< 100 nM	Cc1ccnc(Nc2cccc(-c3cnc(CCCCC(N)=O)s3)n2)c1 [Compound A-71, 5-{5-[6-(4-methylpyridin-2-ylamino)pyridin-2-yl]thiazol-2-yl}pentanamide]	–
